Key:
[1] = system: cellular pERK in ASPC-1 (KRAS G12D) cell-line; experiment: Cell based pERK assay (HTRF), ASPC-1; settings: Homo sapiens, ASPC1; ASPC-1 (KRAS G12D) cells, 2 hours incubation
Experimental: (§1) Compounds were tested in a 384-well assay format for their ability to inhibit cellular pERK in Kuramochi (WT KRAS), MIA-PaCa-2 (KRAS-G12C), ASPC-1 (KRAS G12D), and NCI-H441 (KRAS-G12V) cell-lines. Compounds were serially diluted (1:3) in DMSO. On day −1, 80 uL of cells were plated per well in the 384 well tissue-culture plates (Greiner: Cat #781080) to seed 5000 cells per wells of AsPC-1 or 7500 cells of MIA-PaCa-2, NCI-H441, and Kuramochi cell lines in RPMI (Corning: Cat #10-040-CM) with 10% fetal bovine serum (FBS) (HyClone: Cat #SH30071-03) and 1× penicillin-streptomycin-glutamate (PSG) (Corning: Cat #30-009-CI) for […] and Kuramochi cell lines and DMEM (Corning: Cat #15-018-CM) with […] and 1× PSG for MKA-PaCa-2 cell line. The plates were then incubated overnight at 37° C. and 5% CO2. On day 0, 400 nL of compound/well was added into the cell plates and mixed 5 times by pipetting using a Beckmann Biomek FX. The cell plates were then incubated for 2 hours at 37° C. and 5% CO2. HTRF Advanced Phospho-ERK1/2 ([…]) Detection Kits (PerkinElmer: Cat #64AERPEG) were used to prepare the lysis and detection solution according to manufacturer protocol. Following the 2 hour incubation, 70 μL of medium was aspirated from the plates and 10 uL of lysis and detection solution was added to the plates using a Biotek EL406 washer and dispenser. Plates were sealed and stored overnight at room temperature. HTRF ratio (665 nm/615 nm) was read by Envision multimode reader (PerkinElmer) the next day. The TR-FRET ratios were normalized to a positive (saturating concentration of known inhibitor) and negative (DMSO) control and plotted against the log of compound concentration. IC50 values were defined as the compound concentration that causes a […] in normalized signal and were calculated using a sigmoidal dose-response model to generate curve fits.

[2] = system: cellular pERK in MIA-PaCa-2 (KRAS-G12C) cell-line; experiment: Cell based pERK assay (HTRF), MIA-PaCa-2; settings: Homo sapiens; MIA-PaCa-2 (KRAS-G12C) cells, 2 hours incubation; read-out: MIAPaCa2 pERK EC50
Experimental: as §1

[3] = system: cellular pERK in NCI-H441 (KRAS-G12V) cell-line; experiment: Cell based pERK assay (HTRF), NCI-H441; settings: Homo sapiens; NCI-H441 (KRAS-G12V) cells, 2 hours incubation
Experimental: as §1

[4] = system: cellular pERK in Kuramochi (WT KRAS) cell-line; experiment: Cell based pERK assay (HTRF), Kuramochi; settings: Kuramochi (WT KRAS) cells, 2 hours incubation
Experimental: as §1

## Oc1cc(-c2nc3c4c(nc(OC[C@@]56CCCN5C[C@H](F)C6)nc4c2F)N2CCCOC[C@H]2CC3)c2c(F)c(F)ccc2c1 [Example 6-3]
[1]
  EC50: 91.9 nM
[2]
  EC50: 28.9 nM
[3]
  EC50: 48 nM
[4]
  EC50: 25.8 nM

## C#Cc1c(F)ccc2cccc(-c3nc4c5c(nc(OC[C@@]67CCCN6C[C@H](F)C7)nc5c3F)N3CCCOC[C@H]3CC4)c12 [Example 6-4]
[1]
  EC50: > 1000 nM
[2]
  EC50: > 1000 nM
[3]
  EC50: > 1000 nM
[4]
  EC50: > 1000 nM

## C#Cc1c(F)ccc2cc(O)cc(-c3nc4c5c(nc(OC[C@@]67CCCN6C[C@H](F)C7)nc5c3F)N3CCCOC[C@H]3CC4)c12 [Example 6-5]
[1]
  EC50: 85.8 nM
[2]
  EC50: 13.6 nM
[3]
  EC50: 32.2 nM
[4]
  EC50: 44.9 nM

## C#Cc1c(F)ccc2cccc(-c3nc4c5c(nc(OC[C@@]67CCCN6C[C@H](F)C7)nc5c3F)N3CCCOC[C@@H]3CC4)c12 [Example 6-7]
[1]
  EC50: > 1000 nM
[2]
  EC50: 328 nM
[3]
  EC50: 825 nM
[4]
  EC50: 384 nM

## C#Cc1c(F)ccc2cccc(-c3nc4c5c(nc(OCC67CCCN6CCC7)nc5c3F)N3CCCOC[C@@H]3CC4)c12 [Example 6-9]
[1]
  EC50: > 1000 nM
[2]
  EC50: 430 nM
[3]
  EC50: 729 nM
[4]
  EC50: 376 nM

## C#Cc1c(F)ccc2cccc(-c3nc4c5c(nc(OC[C@@]67CCCN6[C@H](CF)CC7)nc5c3F)N3CCCOC[C@@H]3CC4)c12 [Example 6-10]
[1]
  EC50: 706 nM
[2]
  EC50: 280 nM
[3]
  EC50: 460 nM
[4]
  EC50: 289 nM

## C#Cc1c(F)ccc2cc(O)cc(-c3nc4c5c(nc(OCC67CCCN6CCC7)nc5c3F)N3CCCOC[C@@H]3CC4)c12 [Example 6-11]
[1]
  EC50: 24.4 nM
[2]
  EC50: 1.68 nM
[3]
  EC50: 8.06 nM
[4]
  EC50: 16.6 nM

## C#Cc1c(F)ccc2cc(O)cc(-c3nc4c5c(nc(OC[C@@]67CCCN6C[C@H](F)C7)nc5c3F)N3CC5(COCC3CC4)OCCO5)c12 (stereo partly shown) [Example 6-16]
[1]
  EC50: > 1000 nM
[2]
  EC50: 265 nM
[3]
  EC50: > 1000 nM
[4]
  EC50: 78.5 nM

## C#Cc1c(F)ccc2cc(O)cc(-c3nc4c5c(nc(OC[C@@]67CCCN6C[C@H](F)C7)nc5c3F)N3CCCOC[C@@H]3C=C4C)c12 [Example 6-18]
[1]
  EC50: 0.61 nM
[2]
  EC50: 0.28 nM
[3]
  EC50: 0.56 nM
[4]
  EC50: 1.99 nM

## C#Cc1c(F)ccc2cc(O)cc(-c3nc4c5c(nc(OC[C@@]67CCCN6C[C@H](F)C7)nc5c3F)N3CCCOC[C@@H]3C=C4)c12 [Example 6-19]
[1]
  EC50: 1.18 nM
[2]
  EC50: 0.47 nM
[3]
  EC50: 1.15 nM
[4]
  EC50: 4.01 nM

## C#Cc1c(F)ccc2cc(O)cc(-c3nc4c5c(nc(O[C@@H](C)[C@@H]6CCCN6C)nc5c3F)N3CCCOC[C@@H]3CC4)c12 [Example 6-24]
[1]
  EC50: > 1000 nM
[2]
  EC50: 448 nM
[3]
  EC50: 397 nM
[4]
  EC50: 48.4 nM

## C#Cc1c(F)ccc2cc(O)cc(-c3nc4c5c(nc(OC[C@@]67CCCN6[C@H](COC(=O)N(C)C)CC7)nc5c3F)N3CCCOC[C@@H]3CC4)c12 [Example 6-25]
[1]
  EC50: 9.84 nM
[2]
  EC50: 3.87 nM
[3]
  EC50: 4.57 nM
[4]
  EC50: 17.9 nM

## C#Cc1c(F)c(F)cc2cc(O)cc(-c3nc4c5c(nc(OC[C@@]67CCCN6C[C@H](F)C7)nc5c3F)N3CCCOC[C@@H]3CC4)c12 [Example 6-26]
[1]
  EC50: 1.19 nM
[2]
  EC50: 1.59 nM
[3]
  EC50: 4.04 nM
[4]
  EC50: 2.61 nM

From patent US20240383922A1, “KRAS Modulating Compounds” (Gilead Sciences, Inc., priority 2023, published 2024)
